{
  "source": "patent US4652584A",
  "about": "“Acetylenic phenoxypropanol derivatives and pharmaceutical compositions for the treatment of hypertension” (McNeilab, Inc., priority 1984, dated 1987)",
  "key": {"[1]": {"test_system": "isolated rabbit thoracic aorta (potential-dependent calcium channel)", "assay": "Calcium Entry Blockade test: 45Ca influx in vascular rings", "conditions": "for calcium channel blocking / calcium entry blockade activity: overall result in words", "from_the_text": "(§1) A fourth test for determining the ability of compounds of the invention to act as anti-hypertensive agents is the Calcium Entry Blockade test using vascular smooth muscle. Male New Zealand White Rabbits (H.A.R.E.) (body weight=1.8-2.4 kg) are sacrificed by cervical fracture and the thoracic aorta is removed under standard HEPES buffer. The aorta is rinsed in several changes of standard HEPES and cleared of extraneous tissue. Scissors are used to segment the aorta into 3 mm rings (approximately 12 rings/aorta). For studies of tension, individual rings are equilibrated for one hour in standard HEPES buffer under isometric tension (1 g) between two parallel horizontal wires. For calcium influx studies, the following procedures are executed. After completion of the one-hour equilibration period, the test is begun. To baths containing vascular rings to be tested for the effects of an experimental agent on calcium influx in the basal state (absence of an agonist), the agent dissolved in 20 μl of vehicle (PEG 300 or H2 O) is added and a parallel vehicle bath is started receiving the vehicle alone. To baths containing vascular rings to be tested for the effects of an experimental agent on calcium influx during agonist stimulation, the experimental agent is added in a fashion identical to that described for the basal test and parallel vehicle baths are also initiated. All baths are allowed to equilibrate for 30 minutes. Subsequently, to basal test baths, 20 μl of H2 O is added; to baths receiving KCl, 400 μl of H2 O containing 60 mM KCl is added; to baths receiving NE, 20 μl of H2 O containing 10 μM NE is added. All baths are allowed to equilibrate for an additional 281/2 minutes. At this time, all rings in each bath are removed from their respective bath, quickly but gently blotted and transferred to a bath containing an identical solution but also containing ^45 Ca(20 μl, 2.5 μCi/ml; New England Nuclear, Boston, MA). Rings are allowed exposure to the radiolabelled solution for exactly three minutes. Subsequently, the rings are removed, blotted to remove excess fluid, and placed in predesignated test tubes containing ice cold wash solution where they are allowed to equilibrate for 45 minutes in the presence of vigorous bubbling with 100% O2. Subsequently, individual rings are removed, blotted, weighed (Mettler Balance model AE 163), and placed in a scintillation vial containing 2 ml of 7.5 mM EDTA solution (pH=10.0). Vials are held overnight in darkness. […] Subsequently, 13 ml of Beckman HP scintillation fluid is added to each vial with shaking, vials are cleaned, and counted using a Beckman LS 6800 liquid scintillation counter. Blanks containing solutions alone are simultaneously counted to provide background information.\n(§2) For tension studies, the following procedures are executed. After completion of the one-hour equilibration period, the test is begun. At this time, all tissue tensions are adjusted mechanically back to the 1 gram baseline. Subsequently, all tissue baths receive either KCl (60 mM) plus phentolamine (1 μM) in 400 μl H2 O or NE (10 μM in 20 μl PEG 300). All rings are allowed to develop tension for exactly 30 minutes. Subsequently, the bathing solution is removed and replaced immediately with normal HEPES buffer without experimental agents and the tension response is allowed to \"wash out\". Two subsequent washes are introduced at 10 minute intervals before the rings can achieve the prestimulation baseline tone. Subsequently, the experimental drug or vehicle is added to each bath and the rings are allowed to equilibrate for exactly 30 minutes. Finally, the agonist challenge is repeated as described previously in the presence of the experimental agent. […]"}, "[2]": {"test_system": "isolated rabbit thoracic aorta", "assay": "Calcium Entry Blockade test: tension (tone) of vascular rings", "conditions": "for inhibition at 10 µM: Oryctolagus cuniculus, 10 μM compound", "from_the_text": "as §1, §2"}, "Beta Adrenergic": {"test_system": "Beta Adrenergic", "assay": "Evaluation of Potential Beta Adrenergic Blocking Activity", "design": "species or system guinea pig", "conditions": "overall result in words"}, "[3]": {"test_system": "Isolated Heart (coronary arteries)", "assay": "Langendorff's Isolated Heart model (coronary vasodilation)", "procedure": "In addition to their utility in the treatment of hypertension, the compounds of formula (I) are useful in the treatment of the symptoms of angina pectoris by virtue of their ability to dilate coronary arteries. Often, peripheral arteries are also dilated by compounds which dilate coronary arteries and thus, this test is also useful for predicting activity as an antihypertensive. Compounds of the invention were tested in this regard in the \"Langendorff's Isolated Heart\" model as generally described in \"Pharmaceutical Experiments on Isolated Preparations\", Staff of the Department of Pharmacology, University of Edinbourgh, 2nd Ed., Churchill, Livingston, N.Y. (1970) pages 112-119. In this test, the compound of the invention of formula (I) produced in Example 6b. required a 0.04 μM concentration to elicit a 30% increase in flow."}, "[4]": {"test_system": "spontaneously hypertensive rats", "assay": "Spontaneously Hypertensive Rat (SHR) test, mean arterial pressure via aortic cannula", "type": "in vivo", "conditions": "30 mg per kg of body weight, p.o.", "from_the_text": "The activity of compounds of formula (I) for the treatment of hypertension may be determined using the Spontaneously Hypertensive Rat (SHR) test as described below.\nIn this test, the arterial pressure of adult spontaneously hypertensive rats (Charles River) is monitored directly via an aortic cannula. The SH rats are anesthetized with an inhalation anesthetic (ether). The left carotid artery is isolated and cannulated. The tip of the cannula is advanced to the aorta and the cannula is exteriorized behind the neck at the level of the scapula. Animals are placed in individual cages and allowed to recover from the anesthetic and are kept unrestrained. The arterial cannula is connected to the pressure transducer which is attached to the recorder. The test compounds are administered to at least 3 rats at doses selected in the range of 0.1 to 100 mg/kg of body weight by intraperitoneal (i.p.) or oral (p.o.) routes of administration. The arterial pressure and heart rate are monitored for a minimum of 24 hours. A test compound is considered to be active as an antihypertensive agent if the mean arterial pressure (MAP) indicates a fall of >15 mm of Hg. Each animal serves as its own control."}, "Beta-1": {"molecular_target": "T1, Beta-1 (Cavia porcellus, UniProt H0W3H1)", "T1 construct": "The atria were mounted in 50 ml baths in Krebs-bicarbonate buffer; from tissue; host or cells: guinea pig atria (isolated atrial pairs, female animals)", "T1 sequence (H0W3H1 1-470)": "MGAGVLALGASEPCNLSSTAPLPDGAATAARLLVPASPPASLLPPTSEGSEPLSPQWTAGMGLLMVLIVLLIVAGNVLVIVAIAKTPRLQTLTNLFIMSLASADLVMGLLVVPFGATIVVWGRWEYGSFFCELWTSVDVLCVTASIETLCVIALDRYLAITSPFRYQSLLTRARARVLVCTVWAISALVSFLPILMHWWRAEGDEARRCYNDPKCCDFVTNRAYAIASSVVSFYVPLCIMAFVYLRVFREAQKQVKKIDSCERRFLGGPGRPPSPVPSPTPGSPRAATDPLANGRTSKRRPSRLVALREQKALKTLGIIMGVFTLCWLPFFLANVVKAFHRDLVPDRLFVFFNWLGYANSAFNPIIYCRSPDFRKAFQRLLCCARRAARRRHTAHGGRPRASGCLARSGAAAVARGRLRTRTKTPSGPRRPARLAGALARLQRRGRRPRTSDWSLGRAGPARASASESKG", "conditions": "guinea pig atrial pairs, isoproterenol tachycardia, Schild plot; read-out: pA2 (converted)"}, "[5]": {"conditions": "KCl stimulated, 1.0 and 10.0 μM"}, "[6]": {"conditions": "isolated Langendorff test, 0.01 to 3.0 μM"}},
  "note": "Read-outs that look alike come from different tables or passages of the source.",
  "data": [
    {"smiles": "CC(C)(C)NCC(O)COc1ccccc1C#Cc1ccccc1.Cl", "note": "(stereo not shown) [Example 1d, 1-[(1,1-Dimethylethyl)amino]-3-[2-(phenylethynyl)phenoxy]-2-propanol Hydrochloride]", "values": [
      {"measurement": "inhibition of KCl stimulated calcium influx", "setting": "[1]; KCl stimulated, 10 μM compound", "result": 100, "unit": "%"},
      {"measurement": "inhibition of KCl stimulated effects on calcium influx", "setting": "[1]; [5]", "result": "dose dependent inhibition"},
      {"measurement": "blockade of the potential-dependent calcium channel", "setting": "[1]; isolated rabbit thoracic aorta", "result": "significant blockade"},
      {"measurement": "calcium channel blocking / calcium entry blockade activity", "setting": "[1]; isolated rabbit thoracic aorta", "result": "calcium entry blockade activities"},
      {"measurement": "effect on norepinephrine-induced calcium influx", "setting": "[1]", "result": "no effect"},
      {"measurement": "inhibition of KCl stimulated effects on tone", "setting": "[2]; [5]", "result": "dose dependent inhibition"},
      {"measurement": "inhibition at 10 µM", "setting": "[2]; KCl stimulated, read-out: inhibition of KCl stimulated tone", "result": 100, "unit": "%"},
      {"measurement": "blockade of related vascular tone", "setting": "[2]; isolated rabbit thoracic aorta", "result": "significant blockade"},
      {"measurement": "effect on norepinephrine-induced tone / tension", "setting": "[2]", "result": "no effect"},
      {"measurement": "β-blocking activity", "setting": "Beta Adrenergic", "result": "β-blocking"}
    ]},
    {"smiles": "COc1ccc(C#Cc2ccccc2)c(OCC(O)CNCCc2ccc(OC)c(OC)c2)c1", "note": "(stereo not shown) [Example 6b, 1-[[2-(3,4-Dimethyoxyphenyl)ethyl]amino]-3-[5-methoxy-2-(phenylethynyl)phenoxy]-2-propanol (E)-2-Butenedioate (2:1)]", "values": [
      {"measurement": "EC30", "setting": "[3]; Langendorff isolated heart, 30% increase in flow, read-out: concentration required to elicit a 30% increase in flow", "result": 40, "unit": "nM"},
      {"measurement": "activation at 0.1 µM", "setting": "[3]; at 0.1 μM", "result": 39, "unit": "%"},
      {"measurement": "coronary vasodilator activity", "setting": "[3]; [6]", "result": "active coronary vasodilator"},
      {"measurement": "effect on contractile force", "setting": "[3]; [6]", "result": "no effect"},
      {"measurement": "effect on spontaneous rate", "setting": "[3]; [6]", "result": "no effect"}
    ]},
    {"smiles": "CN(C)c1ccc(C#Cc2ccccc2OCC(O)CNC(C)(C)C)cc1.O=C(O)/C=C/C(=O)O", "note": "(stereo not shown) [Example 16, 1-[(1,1-Dimethylethyl)amino]-3-[2-[(4-dimethylaminophenyl)ethynyl]phenoxy]-2-propanol (E)-2-Butenedioate (1:1)]", "values": [
      {"measurement": "maximum change in mean arterial blood pressure (fall)", "setting": "[4]", "result": "69 mm of Hg"},
      {"measurement": "effect on KCl-dependent calcium flux", "setting": "[1]; KCl-dependent, 10 μM compound", "result": "no effect"},
      {"measurement": "calcium channel blocking / calcium entry blockade activity", "setting": "[1]; isolated rabbit thoracic aorta", "result": "did not exhibit typical calcium channel blocking activity"},
      {"measurement": "effect on norepinephrine-induced calcium influx", "setting": "[1]", "result": "reduced norepinephrine-induced calcium flux"},
      {"measurement": "inhibition at 10 µM", "setting": "[2]; KCl-dependent, read-out: reduction of KCl-dependent contractile activity", "result": 50, "unit": "%"},
      {"measurement": "effect on norepinephrine-induced tone / tension", "setting": "[2]", "result": "without changing tension"}
    ]},
    {"smiles": "CC(=O)Nc1cccc(C#Cc2ccccc2OCC(O)CNC(C)(C)C)c1", "note": "(stereo not shown) [Example 18, N-[3-[[2-[3-[(1,1-Dimethylethyl)amino]-2-hydroxypropoxy]phenyl]ethynyl]phenyl]acetamide 4-methylbenzene sulfonate]", "values": [
      {"measurement": "Kb", "setting": "Beta-1", "result": 7.08, "unit": "nM"}
    ]}
  ]
}
